The values below come from patent publication US20220106282A1, “TREATMENT FOR BREAST CANCER, INCLUDING TRIPLE-NEGATIVE BREAST CANCER” (priority 2018, published 2022).

In data set [1] the test system is MCF-7 breast cancer cells. The settings on record: RU 2619457; cited from earlier work.
In a further data set the test system is ovariectomized rats. Nature of the data set: Biochemical parameters of ovariectomized rats. It counts as in vivo, rat. The settings on record: ovariectomised rats, EE 0.1 mg/kg bw.
Data set [2] deals with uterine body. Nature of the data set: Hormonal effect: uterine body weight in tumor-bearing mice. It counts as in vivo, mouse. The following applies: Tamoxifen-1 group, 4 mg/kg. As for the experimental part: To estimate the hormonal effect of the medicament, the weight of the uterine body without uterine horns was measured (Table 9).
Data set [3] deals with uterine body. The description is as above. It counts as in vivo, mouse. The following applies: Tamoxifen-1 group, 4 mg/kg; estrous phase E.
Assay in data set [4]: as above
Format: in vivo, mouse. The following applies: Tamoxifen-1 group, 4 mg/kg.

The test system of data set [5] is breast tumors in female FVB mice transgenic for HER-2/neu. Nature of the data set: Antitumor activity on model of multiple breast tumors in HER-2/neu transgenic mice. The following applies: for Average total volume of tumors in mice (M) / Average volume of tumors present at the beginning of the experiment (M): i.g. daily. As for the experimental part: Two adenocarcinoma subtypes can be differentiated, in particular ER+, PR−, and ER−, PR− [2].
The study was carried out in female FVB mice transgenic for HER-2/neu by conventional category; the strain was obtained from the mouse bank Charles River Laboratories (Italy). At the beginning of the study the animals were 21-41 weeks old having weight of 25 to 30 g.
The study medicament was administered i.g. using a metal atraumatic gavage (with the procedure corresponds to the oral route of administration in clinical settings). The medicament was administered in a single daily dose (20 mg/kg of body weight) and 5-fold daily dose of 100 mg/kg of body weight. Ex tempore solutions of the medicament for administration were prepared in olive oil (refined olive oil supplemented with unrefined extra virgin olive oil available under Global Village “Clasico” trademark, lot L:183351116, expiry date 26 Apr. 2020, BAIEO, Spain). The administered volume was 0.1 ml per 10 g of a mouse body weight (0.2 ml of a ready-to-use formulation for a mouse of 20 g). The medicament administration was started 24 hours after the randomization. The duration of the administration course was 27-28 days.
This dose corresponds to a human daily dose of 20 mg/kg.
The control groups were given the olive oil (placebo).
The evaluation criteria included the clinical observation data, animals body weights, time of death (if applicable), tumor growth over time, pathomorphological examination data (verification of a neoplasm during autopsy, assessment of toxic effects by macroscopic presentation of changes in the internal organs).
The animals body weights were recorded before the first administration of the medicaments and then twice per week using a verified high-speed electronic laboratory balance Ohaus Scout Pro (USA) with a maximum load of 2000 g and a measurement step of 0.1 g.
Macroscopically detectable tumor nodes were measured in animals once per week during weighing process. Two linear dimensions including the largest one and the largest rectangular to the former were recorded for each of the nodes. The largest dimension was taken as a length (a) and the second dimension as a width (b) of the tumor nodes. A tumor volume was calculated by the expression as follows: […]
The efficacy of the therapy was assessed by recording a change in the average tumor volume, tumor growth inhibition (TGI), and the average total tumor volumes and its change over time in each of the mice.
The percent of tumor growth inhibition was calculated by the expression as follows:
TGI=(Vctrl−Vexp)/Vctrl×100(%),
where Vctrl is an average tumor volume in a control group, and Vexp is an average tumor volume in an experimental group.
The primary data from individual forms were transferred to Microsoft Excel 2007 books. The group arithmetic average (M) and standard deviation (m) were calculated for all quantitative data. The statistical analysis was performed using the statistical software GraphPad Prism 6.0. The differences between the groups were assessed using ANOVA regression analysis and the Fisher's exact test.

For data set [6] the following is noted: first class: high solubility, high permeability, second class: low solubility; cited from earlier work.
A further data set concerns uterus. The settings on record: literature / prior art; cited from earlier work.
The mark [7] stands for this setting: Tamoxifen group, dose 1.4 mg/kg, Day 6.
[8] abbreviates: Tamoxifen group, dose 1.4 mg/kg, Day 13.
[9] abbreviates: Tamoxifen group, dose 1.4 mg/kg, Day 20.
Where [10] appears, read: Tamoxifen group, dose 1.4 mg/kg, Day 27.
Where [11] appears, read: Tamoxifen group, dose 1.4 mg/kg, Day −1.
Setting [12] is: Tamoxifen group, dose 1.4 mg/kg, Day 27 vs Day −1.
[13] abbreviates: Tamoxifen-1 group, 4 mg/kg i.g. daily, end of study.

Values joined by “and” are separate entries in the source; they are usually repeats but may differ in a detail not shown here. Equal entries are not always repeated. Marks after values point to notes of the source that are not given here.

With `C[C@H]1Oc2cc(OS(N)(=O)=O)ccc2C2=C1C1=CCC[C@H](OS(N)(=O)=O)[C@@]1(C)CC2` [3,17αβ-disulfamoyloxy-7β-methyl-D-homo-6-oxa-estra-1,3,5(10), 8,14-pentaen], the “Growth of MCF-7 breast cancer cells” value in data set [1] was “inhibitor of the growth”.
In the data set on ovariectomized rats, `C#C[C@]1(O)CC[C@H]2[C@@H]3CCc4cc(O)ccc4[C@H]3CC[C@@]21C` [EE, 17α-ethinyl estradiol, reference compound] returned a Uterus weight of 164 ± 11 mg/100 g bw.
As for `CC/C(=C(\c1ccccc1)c1ccc(OCCN(C)C)cc1)c1ccccc1` [Tamoxifen, reference compound], the results for the Uterine body weight with uterine body [2] (all mice), in the data set on uterine body [2] (estrous phase D) and with uterine body [3] were 32 ± 2 mg, 34 mg and 31 ± 2 mg, respectively. In addition, the Body weight in data set [4] (all mice) was found to be 28.2 ± 1.0 g; in data set [4] (estrous phase D), 30.5 g; in data set [4] (estrous phase E), 28.0 ± 1.0 g. Moreover, the “Average total volume of tumors in mice (M)” value in data set [5] (setting [7]) was 0.76 cm^3; in data set [5] (setting [8]), 0.88 cm^3; in data set [5] (setting [9]), 1.38 cm^3; in data set [5] (setting [10]) it was 1.68 cm^3; in data set [5] (setting [11]) it was 0.66 cm^3. Besides, the “Average volume of tumors present at the beginning of the experiment (M)” value in data set [5] (setting [7]) is on record as 0.26 cm^3; in data set [5] (setting [8]), 0.3 cm^3; in data set [5] (setting [9]), 0.47 cm^3; in data set [5] (setting [10]) it was 0.58* cm^3; in data set [5] (setting [11]), 0.23 cm^3. Further, the “TGI (average total tumor volume)” value in data set [5] (setting [7]) is −12%; in data set [5] (setting [8]), −32%; in data set [5] (setting [9]), 9%; in data set [5] (setting [10]), 18%; in data set [5] (setting [11]) it was −57%. Also, the “TGI (average tumor volume)” value in data set [5] (setting [7]) was 13%; in data set [5] (setting [8]), 46%; in data set [5] (setting [9]) it was 29%; in data set [5] (setting [11]), −28%. Moreover, the “% of change from baseline (average total tumor volume)” value in data set [5] (setting [12]) is reported as 155%. Also, in data set [5] (setting [12]), the “% of change to the initial value (average tumor volume)” value was found to be 152%. The “Average volume of new tumors at the end of the observation period (M)” value in data set [5] (Tamoxifen-1 group, 4 mg/kg i.g. daily, 4 mg/kg) is 0.16±0.05 cm^3 and 0.16 cm^3. The “Absolute number of new tumors” value in data set [5] (setting [13]) is 21. The “Frequency of tumor stabilizations” value in data set [5] (setting [13]) was 10%. In data set [5] (Tamoxifen-1 group, end of observation), the “Average volume of new tumors, % less than that of the control group” value worked out at 52%.
Take `CC(C)(C#N)c1cc(Cn2cncn2)cc(C(C)(C)C#N)c1` [anastrazole]: the BCS class entry in data set [6] is “first class”.
For the compound `C[C@]12CC[C@@H]3c4ccc(OS(N)(=O)=O)cc4CC[C@H]3[C@@H]1CCC2=O` [estrone sulfamate], the Uterotropic activity result with uterus is reported as “strong uterotropic activity”.
With `N#Cc1ccc(C(c2ccc(C#N)cc2)n2cncn2)cc1` [letrozole], in data set [6], the BCS class result was “first class”.
